Experimental data: PubChem BioAssay AID384 (SGCOxCompounds, 2006)

biological target: Casein kinase I isoform gamma-2 (Homo sapiens) (UniProt P78368); assay: CSNK1G2 binders by thermal stabilization, biophysical, DSF, SYPRO orange, recombinant protein (AID 384); details: at 10 µM, protein 2 µM, buffer 10 mM HEPES, NaCl 100 mM, active compounds read high
Sequence (P78368 whole entry, looked up, canonical isoform): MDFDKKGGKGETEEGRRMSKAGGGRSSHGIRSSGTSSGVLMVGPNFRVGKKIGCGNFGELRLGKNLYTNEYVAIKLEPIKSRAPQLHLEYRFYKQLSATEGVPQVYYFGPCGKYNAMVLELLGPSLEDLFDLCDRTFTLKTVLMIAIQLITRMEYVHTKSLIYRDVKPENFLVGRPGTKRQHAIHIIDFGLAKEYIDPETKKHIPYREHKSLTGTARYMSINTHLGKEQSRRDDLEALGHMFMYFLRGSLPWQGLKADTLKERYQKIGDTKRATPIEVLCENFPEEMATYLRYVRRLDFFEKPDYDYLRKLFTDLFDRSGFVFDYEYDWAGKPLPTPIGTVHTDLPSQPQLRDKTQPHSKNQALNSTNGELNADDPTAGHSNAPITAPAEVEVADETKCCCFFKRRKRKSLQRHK

| Structure (SMILES) | Tm shift [Celsius] |
| --- | --- |
| CCn1cnc2c(Nc3cccc(Cl)c3)nc(N[C@@H]3CCCC[C@@H]3N)nc21 | 3.79 |
| COc1cc(O)c2c(c1)oc(=O)c1c3cc(O)c(O)cc3oc21 | 5.16 |
| O=C1C(=O)C(c2cc(O)c(O)c(O)c2)Oc2cc(O)cc(O)c21 (configuration not stated) | 3.74 |
| Clc1ccc(Nc2ncc(-c3cn[nH]c3)n3ccnc23)cc1 | 3.76 |
| O=c1cc(-c2ccc(O)c(O)c2)oc2cc(O)cc(O)c12 | 4.55 |
| COc1cc(/C=C/C(=O)CC(=O)/C=C/c2ccc(O)c(OC)c2)ccc1O | 4.92 |
| NC1=N/C(=C2/CCNC(=O)c3[nH]c(Br)cc32)C(=O)N1 | 8.12 |
| CC(C)C(CO)Nc1nc(Nc2cccc(Cl)c2)c2ncn(C(C)C)c2n1 (configuration not stated) | 4.92 |
| O=c1c(O)c(-c2ccc(O)c(O)c2)oc2cc(O)ccc12 | 3.19 |
| CC(C)n1cnc2c(Nc3cccc(Cl)c3)nc(NCCO)nc21 | 5.58 |
| Nc1ncnc2c1c(I)cn2[C@@H]1O[C@H](CO)C(O)C1O (some centres not stated) | 4.69 |
| CCN(CC)CCNC(=O)c1c(C)[nH]c(/C=C2\C(=O)Nc3ccc(Cl)cc32)c1C | 4.06 |
| NC1=N/C(=C2\CCNC(=O)c3[nH]ccc32)C(=O)N1 | 3.67 |

same assay, conditions: at 10 µM, protein 2 µM, buffer 10 mM HEPES, pH 7.5, NaCl 150 mM, active compounds read high

| Structure (SMILES) | Tm shift [Celsius] |
| --- | --- |
| O=Nc1c(-c2c(O)[nH]c3ccc(I)cc23)[nH]c2ccccc12 | 3.6 |
| Cc1nc(N)sc1-c1ccnc(Nc2cccc(-n3oo3)c2)n1 | 4 |
| O=c1[nH]c(O)c2c1c1c3ccccc3nc1n1cncc21 | 3.6 |
| CSc1nc(-c2ccnc(NC(C)c3ccccc3)c2)c(-c2ccc(F)cc2)[nH]1 (configuration not stated) | 3.4 |
| NC1=N/C(=C2/CCNC(=O)c3[nH]c(Br)cc32)C(=O)N1 | 4.4 |
| NC(=O)c1ccc(-c2nc(-c3ccc4c(c3)OCCO4)c(-c3ccccn3)[nH]2)cc1 | 4.3 |
| O=Nc1c(-c2c(O)[nH]c3ccc(S(O)(O)O)cc23)[nH]c2ccccc12 | 3.1 |
| COc1ccc(Nc2nc(N)c(C(=O)c3ccc(Cl)cc3)s2)cc1 | 3.1 |
| COc1ccc(Nc2nc(N)c(C(=O)c3ccc(OC)cc3)s2)cc1 | 4.3 |
| CC(C)n1cnc2c(Nc3cccc(Cl)c3)nc(NCCO)nc21 | 4.7 |
| Cc1cc(Nc2nc(-c3ccccc3)nc3ccccc23)n[nH]1 | 3.3 |
| Nc1ncnc2c1c(I)cn2[C@@H]1O[C@H](CO)C(O)C1O (some centres not stated) | 3.3 |
| Nc1nc(Nc2cccc(Cl)c2)sc1C(=O)c1ccc(F)cc1 | 3.4 |
| O=c1c(O)c(-c2ccc(O)c(O)c2)oc2cc(O)cc(O)c12 | 3.1 |
